# Results reported in patent publication US20230085307A1, “PYRIDAZINONE COMPOUND AND HERBICIDE” (NISSAN CHEMICAL CORPORATION, priority 2019, published 2023).
# Columns and labels:
# oval-leafed pondweed = test: Test Example 1: herbicidal activity, application before weed generation under submerged conditions (Table 16, symbol C); type: in vivo, oval-leafed pondweed (Monochoria vaginalis); settings: 320 g/ha applied herbicide
# Procedure, shortened: (§1)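 Emulsion formulation, water-diluted to set dose, was put onto the flooded surface (4 cm depth, alluvial soil) the same day weeds were sown and 2.5-leaf rice transplanted. After 3 weeks at 25-30 °C under glass, each species was rated 0 (≤5% kill) to 5 (≥90% kill).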
# false cleavers [1] = test: Test Example 5: herbicidal effect by foliage application, plastic box (Table 20, symbol Q); type: in vivo, false cleavers (Galium spurium); settings: foliage application, 320 g/ha, three weeks after application
# Procedure, shortened: (§2)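 Post-emergence foliar test in sterilized diluvial soil. Compound applied as water-diluted emulsion at a predetermined rate to 14-day-old plants; evaluation at three weeks.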
# lambsquarters [2] = test: Test Example 4: herbicidal effect by soil treatment (Table 19, symbol O); type: in vivo, lambsquarters (Chenopodium album); settings: amount of applied herbicide 320 g/ha
# Procedure, shortened: (§3)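 Emulsion of test compound, water-diluted to predetermined amount, sprayed on soil after sowing (seed depth ~1.5 cm, sterilized diluvial soil). Greenhouse, 25–30° C. Effect graded at three weeks post-spray.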
# Italian ryegrass [3] = test: Test Example 4: herbicidal effect by soil treatment (Table 19, symbol K); type: in vivo, Italian ryegrass (Lolium multiflorum); settings: amount of applied herbicide 320 g/ha
# Procedure, shortened: as §3
# green foxtail [4] = test: Test Example 4: herbicidal effect by soil treatment (Table 19, symbol G); type: in vivo, green foxtail (Setaria viridis); settings: amount of applied herbicide 320 g/ha
# Procedure, shortened: as §3
# windgrass [5] = test: Test Example 4: herbicidal effect by soil treatment (Table 19, symbol L); type: in vivo, windgrass (Apera spica-venti); settings: amount of applied herbicide 320 g/ha
# Procedure, shortened: as §3
# barnyard grass [6] = test: Test Example 4: herbicidal effect by soil treatment (Table 19, symbol H); type: in vivo, barnyard grass (Echinochloa crus-galli); settings: amount of applied herbicide 320 g/ha
# Procedure, shortened: as §3
# southern crabgrass [7] = test: Test Example 4: herbicidal effect by soil treatment (Table 19, symbol F); type: in vivo, southern crabgrass (Digitaria ciliaris); settings: amount of applied herbicide 320 g/ha
# Procedure, shortened: as §3
# wild oat [8] = test: Test Example 5: herbicidal effect by foliage application, plastic box (Table 20, symbol I); type: in vivo, wild oat (Avena fatua); settings: foliage application, 320 g/ha, three weeks after application
# Procedure, shortened: as §2
# chickweed [9] = test: Test Example 5: herbicidal effect by foliage application, plastic box (Table 20, symbol P); type: in vivo, common chickweed (Stellaria media); settings: foliage application, 320 g/ha, three weeks after application
# Procedure, shortened: as §2
# persian speedwell [10] = test: Test Example 5: herbicidal effect by foliage application, plastic box (Table 20, symbol R); type: in vivo, Persian speedwell (Veronica persica); settings: foliage application, 320 g/ha, three weeks after application
# Procedure, shortened: as §2
# Italian ryegrass [11] = test: Test Example 5: herbicidal effect by foliage application, plastic box (Table 20, symbol K); type: in vivo, Italian ryegrass (Lolium multiflorum); settings: foliage application, 320 g/ha, three weeks after application
# Procedure, shortened: as §2
# lambsquarters [12] = test: Test Example 5: herbicidal effect by foliage application, plastic box (Table 20, symbol O); type: in vivo, lambsquarters (Chenopodium album); settings: foliage application, 320 g/ha, three weeks after application
# Procedure, shortened: as §2
# barnyard grass [13] = test: Test Example 3: herbicidal effect by foliage application, Wagner pot (Table 18, symbol H); type: in vivo, barnyard grass (Echinochloa crus-galli); settings: 320 g/ha
# Procedure, shortened: (§4)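 Plants were sown in alluvial soil held under 0.1–0.5 cm standing water and grown 14 days in a greenhouse at 25–30 °C. An emulsifiable formulation, water-diluted to the set dose, was then sprayed onto the foliage, and effects were scored three weeks later using previously defined criteria.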
# barnyard grass [14] = test: Test Example 5: herbicidal effect by foliage application, plastic box (Table 20, symbol H); type: in vivo, barnyard grass (Echinochloa crus-galli); settings: foliage application, 320 g/ha, three weeks after application
# Procedure, shortened: as §2
# redroot pigweed [15] = test: Test Example 5: herbicidal effect by foliage application, plastic box (Table 20, symbol N); type: in vivo, redroot pigweed (Amaranthus retroflexus); settings: foliage application, 320 g/ha, three weeks after application
# Procedure, shortened: as §2
# blackgrass [16] = test: Test Example 5: herbicidal effect by foliage application, plastic box (Table 20, symbol J); type: in vivo, blackgrass (Alopecurus myosuroides); settings: foliage application, 320 g/ha, three weeks after application
# Procedure, shortened: as §2
# velvetleaf [17] = test: Test Example 5: herbicidal effect by foliage application, plastic box (Table 20, symbol M); type: in vivo, velvetleaf (Abutilon theophrasti); settings: foliage application, 320 g/ha, three weeks after application
# Procedure, shortened: as §2
# Chinese sprangletop = test: Test Example 3: herbicidal effect by foliage application, Wagner pot (Table 18, symbol D); type: in vivo, chinese sprangletop (Leptochloa chinensis); settings: 320 g/ha
# Procedure, shortened: as §4
# late watergrass = test: Test Example 1: herbicidal activity, application before weed generation under submerged conditions (Table 16, symbol A); type: in vivo, late watergrass (Echinochloa oryzicola); settings: 320 g/ha applied herbicide
# Procedure, shortened: as §1
# velvetleaf [18] = test: Test Example 4: herbicidal effect by soil treatment (Table 19, symbol M); type: in vivo, velvetleaf (Abutilon theophrasti); settings: amount of applied herbicide 320 g/ha
# Procedure, shortened: as §3
# wild oat [19] = test: Test Example 4: herbicidal effect by soil treatment (Table 19, symbol I); type: in vivo, wild oat (Avena fatua); settings: amount of applied herbicide 320 g/ha
# Procedure, shortened: as §3
# blackgrass [20] = test: Test Example 4: herbicidal effect by soil treatment (Table 19, symbol J); type: in vivo, blackgrass (Alopecurus myosuroides); settings: amount of applied herbicide 320 g/ha
# Procedure, shortened: as §3
# persian speedwell [21] = test: Test Example 4: herbicidal effect by soil treatment (Table 19, symbol R); type: in vivo, Persian speedwell (Veronica persica); settings: amount of applied herbicide 320 g/ha
# Procedure, shortened: as §3
# southern crabgrass [22] = test: Test Example 5: herbicidal effect by foliage application, plastic box (Table 20, symbol F); type: in vivo, southern crabgrass (Digitaria ciliaris); settings: foliage application, 320 g/ha, three weeks after application
# Procedure, shortened: as §2
# redroot pigweed [23] = test: Test Example 4: herbicidal effect by soil treatment (Table 19, symbol N); type: in vivo, redroot pigweed (Amaranthus retroflexus); settings: amount of applied herbicide 320 g/ha
# Procedure, shortened: as §3
# chickweed [24] = test: Test Example 4: herbicidal effect by soil treatment (Table 19, symbol P); type: in vivo, common chickweed (Stellaria media); settings: amount of applied herbicide 320 g/ha
# Procedure, shortened: as §3
# green foxtail [25] = test: Test Example 5: herbicidal effect by foliage application, plastic box (Table 20, symbol G); type: in vivo, green foxtail (Setaria viridis); settings: foliage application, 320 g/ha, three weeks after application
# Procedure, shortened: as §2
# Japanese bulrush = test: Test Example 1: herbicidal activity, application before weed generation under submerged conditions (Table 16, symbol B); type: in vivo, Japanese bulrush (Schoenoplectus juncoides); settings: 320 g/ha applied herbicide
# Procedure, shortened: as §1
# false cleavers [26] = test: Test Example 4: herbicidal effect by soil treatment (Table 19, symbol Q); type: in vivo, false cleavers (Galium spurium); settings: amount of applied herbicide 320 g/ha
# Procedure, shortened: as §3
# rice flat sedge = test: Test Example 3: herbicidal effect by foliage application, Wagner pot (Table 18, symbol E); type: in vivo, rice flat sedge (Cyperus iria); settings: 320 g/ha
# Procedure, shortened: as §4
# windgrass [27] = test: Test Example 5: herbicidal effect by foliage application, plastic box (Table 20, symbol L); type: in vivo, windgrass (Apera spica-venti); settings: foliage application, 320 g/ha, three weeks after application
# Procedure, shortened: as §2
compound,measurement,setting,value
Cc1ccc(-c2sc3ccccc3c2-c2c(O)c(C)nn(C)c2=O)cc1C [1-065],Herbicidal effect on C: oval-leafed pondweed (grade 0-5),oval-leafed pondweed,0 (Herbicidal rate of 5% or less (almost no effect))
same,"herbicidal effect grade, Q: false cleavers",false cleavers [1],3 (Herbicidal rate of 40% or more and less than 70%)
same,"herbicidal effect rating, O: lambsquarters",lambsquarters [2],0 (Herbicidal rate of 5% or less (almost no effect))
same,"herbicidal effect rating, K: Italian ryegrass",Italian ryegrass [3],0 (Herbicidal rate of 5% or less (almost no effect))
same,"herbicidal effect rating, G: green foxtail",green foxtail [4],0 (Herbicidal rate of 5% or less (almost no effect))
same,"herbicidal effect rating, L: windgrass",windgrass [5],0 (Herbicidal rate of 5% or less (almost no effect))
same,"herbicidal effect rating, H: barnyard grass",barnyard grass [6],0 (Herbicidal rate of 5% or less (almost no effect))
same,"herbicidal effect rating, F: southern crabgrass",southern crabgrass [7],0 (Herbicidal rate of 5% or less (almost no effect))
same,"herbicidal effect grade, I: wild oat",wild oat [8],0 (Herbicidal rate of 5% or less (almost no effect))
same,"herbicidal effect grade, P: chickweed",chickweed [9],5 (Herbicidal rate of 90% or more (almost completely withered))
same,"herbicidal effect grade, R: persian speedwell",persian speedwell [10],5 (Herbicidal rate of 90% or more (almost completely withered))
same,"herbicidal effect grade, K: Italian ryegrass",Italian ryegrass [11],2 (Herbicidal rate of 20% or more and less than 40%)
same,"herbicidal effect grade, O: lambsquarters",lambsquarters [12],3 (Herbicidal rate of 40% or more and less than 70%)
same,"herbicidal effect on H (barnyard grass), rating 0-5",barnyard grass [13],3 (Herbicidal rate of 40% or more and less than 70%)
same,"herbicidal effect grade, H: barnyard grass",barnyard grass [14],3 (Herbicidal rate of 40% or more and less than 70%)
same,"herbicidal effect grade, N: redroot pigweed",redroot pigweed [15],3 (Herbicidal rate of 40% or more and less than 70%)
same,"herbicidal effect grade, J: blackgrass",blackgrass [16],0 (Herbicidal rate of 5% or less (almost no effect))
same,"herbicidal effect grade, M: velvetleaf",velvetleaf [17],5 (Herbicidal rate of 90% or more (almost completely withered))
same,"herbicidal effect on D (Chinese sprangletop), rating 0-5",Chinese sprangletop,3 (Herbicidal rate of 40% or more and less than 70%)
same,Herbicidal effect on A: late watergrass (grade 0-5),late watergrass,3 (Herbicidal rate of 40% or more and less than 70%)
same,"herbicidal effect rating, M: velvetleaf",velvetleaf [18],0 (Herbicidal rate of 5% or less (almost no effect))
same,"herbicidal effect rating, I: wild oat",wild oat [19],0 (Herbicidal rate of 5% or less (almost no effect))
same,"herbicidal effect rating, J: blackgrass",blackgrass [20],0 (Herbicidal rate of 5% or less (almost no effect))
same,"herbicidal effect rating, R: persian speedwell",persian speedwell [21],4 (Herbicidal rate of 70% or more and less than 90%)
same,"herbicidal effect grade, F: southern crabgrass",southern crabgrass [22],3 (Herbicidal rate of 40% or more and less than 70%)
same,"herbicidal effect rating, N: redroot pigweed",redroot pigweed [23],0 (Herbicidal rate of 5% or less (almost no effect))
same,"herbicidal effect rating, P: chickweed",chickweed [24],3 (Herbicidal rate of 40% or more and less than 70%)
same,"herbicidal effect grade, G: green foxtail",green foxtail [25],3 (Herbicidal rate of 40% or more and less than 70%)
same,Herbicidal effect on B: Japanese bulrush (grade 0-5),Japanese bulrush,0 (Herbicidal rate of 5% or less (almost no effect))
same,"herbicidal effect rating, Q: false cleavers",false cleavers [26],0 (Herbicidal rate of 5% or less (almost no effect))
same,"herbicidal effect on E (rice flat sedge), rating 0-5",rice flat sedge,5 (Herbicidal rate of 90% or more (almost completely withered))
same,"herbicidal effect grade, L: windgrass",windgrass [27],0 (Herbicidal rate of 5% or less (almost no effect))
